Source: PubChem BioAssay (NCI)
Values joined by “and” are separate entries in the source; they are usually repeats but may differ in a detail not shown here. Equal values may be shown once.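 Growth conditions: 96-well plates. Treatment: test compound, 48 hours, 5 concentrations. Analysis: linear interpolation between bracketing concentrations; unreached endpoints set to highest concentration. The concentration for 50% growth inhibition is given as GI50. TGI: concentration producing complete growth inhibition.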 Where a SMILES comes first, the peptide text is derived from it. [ ]: non-standard residue; d: D form. The star is where a group is joined. ξ: configuration not given here. NMeN = CN[C@@H](CC(N)=O)C(=O)O; NMeV = CN[C@H](C(=O)O)C(C)C; ξNMeV = CNC(C(=O)O)C(C)C; Boc = CC(C)(C)OC(=O)*; ξNMeA = CNC(C)C(=O)O

Key:
Assay in all cases: growth of human tumour cells (NCI), 48 h
EKVX NSCLC = tested on: EKVX NSCLC
RPMI-8226 leukemia = tested on: RPMI-8226 leukemia
BT-549 breast = tested on: BT-549 breast
HL-60(TB) leukemia = tested on: HL-60(TB) leukemia
SW-620 colon = tested on: SW-620 colon
UACC-257 melanoma = tested on: UACC-257 melanoma
SF-268 CNS = tested on: SF-268 CNS
NCI-H522 lung = tested on: NCI-H522 lung
786-0 renal = tested on: 786-0 renal
ACHN renal = tested on: ACHN renal

SMILES: COc1cc(C(c2cc3c(cc2O)OCO3)N2CCCCC2)cc(OC)c1OC (stereo not given)
- TGI (EKVX NSCLC): 39.5 µM
- TGI (RPMI-8226 leukemia): > 26.9 µM
- TGI (BT-549 breast): 24.4 µM
- TGI (HL-60(TB) leukemia): 4.16 µM
- TGI (SW-620 colon): 12 µM
- TGI (UACC-257 melanoma): 25.7 µM
- TGI (SF-268 CNS): 31.5 µM
- TGI (NCI-H522 lung): 26.7 µM
- TGI (786-0 renal): 12.9 µM
- TGI (ACHN renal): 31.1 µM

SMILES: CN1CCCCCC(=N\O)/C(=N/O)CCCCC1
- TGI (EKVX NSCLC): > 100 µM
- TGI (BT-549 breast): > 100 µM
- TGI (HL-60(TB) leukemia): > 100 µM
- TGI (SW-620 colon): > 100 µM
- TGI (UACC-257 melanoma): > 100 µM
- TGI (SF-268 CNS): > 100 µM
- TGI (NCI-H522 lung): > 100 µM
- TGI (786-0 renal): > 100 µM
- TGI (ACHN renal): > 100 µM

SMILES: COC(=O)C(C)N(C)C(=O)[C@H](CC(N)=O)N(C)C(=O)[C@@H]1CCCN1C(=O)[C@H](C(C)C)N(C)C(=O)C(C(C)C)N(C)C(=O)[C@@H](NC(=O)OC(C)(C)C)C(C)C (stereo not given in full) (Boc-V[ξNMeV][NMeV]P[NMeN][ξNMeA]-OMe)
- GI50 (EKVX NSCLC): 16.9 µM
- TGI (EKVX NSCLC): > 50 µM and 35.3 µM
- TGI (RPMI-8226 leukemia): > 100 µM
- TGI (BT-549 breast): > 50 µM
- GI50 (HL-60(TB) leukemia): > 100 µM
- TGI (HL-60(TB) leukemia): 50 µM and > 100 µM
- GI50 (SW-620 colon): 12.7 µM
- TGI (SW-620 colon): > 50 µM and 26.7 µM
- GI50 (UACC-257 melanoma): > 100 µM
- TGI (UACC-257 melanoma): > 100 µM
- TGI (SF-268 CNS): > 100 µM
- TGI (NCI-H522 lung): > 50 µM
- GI50 (786-0 renal): 57 µM
- TGI (786-0 renal): > 100 µM
- GI50 (ACHN renal): > 100 µM
- TGI (ACHN renal): > 100 µM

SMILES: NC(=O)c1ccc2c(-c3ccnc(NCCCO)n3)c(-c3ccc(F)cc3)nn2c1
- GI50 (EKVX NSCLC): > 25 µM
- TGI (EKVX NSCLC): > 25 µM
- GI50 (RPMI-8226 leukemia): > 25 µM
- TGI (RPMI-8226 leukemia): > 25 µM
- GI50 (BT-549 breast): > 25 µM
- TGI (BT-549 breast): > 25 µM
- GI50 (HL-60(TB) leukemia): > 21.9 µM
- TGI (HL-60(TB) leukemia): > 25 µM
- GI50 (SW-620 colon): > 25 µM
- TGI (SW-620 colon): > 25 µM
- GI50 (UACC-257 melanoma): > 25 µM
- TGI (UACC-257 melanoma): > 25 µM
- GI50 (SF-268 CNS): > 22.2 µM
- TGI (SF-268 CNS): > 25 µM
- GI50 (NCI-H522 lung): > 25 µM
- TGI (NCI-H522 lung): > 25 µM
- GI50 (786-0 renal): > 25 µM
- TGI (786-0 renal): > 25 µM
- GI50 (ACHN renal): > 17.1 µM
- TGI (ACHN renal): > 25 µM

SMILES: O=c1[nH]ccc2nc(N3CCC(O)CC3)nc(Nc3cccc(C(F)(F)F)c3)c12
- GI50 (EKVX NSCLC): 2.85 µM
- TGI (EKVX NSCLC): 12.1 µM
- GI50 (RPMI-8226 leukemia): 2.95 µM
- TGI (RPMI-8226 leukemia): 92 µM
- GI50 (BT-549 breast): 1.6 µM
- TGI (BT-549 breast): 4.34 µM
- GI50 (HL-60(TB) leukemia): 0.863 µM
- TGI (HL-60(TB) leukemia): 5.06 µM
- GI50 (SW-620 colon): 1.91 µM
- TGI (SW-620 colon): 12.9 µM
- GI50 (UACC-257 melanoma): 4.24 µM
- TGI (UACC-257 melanoma): 13 µM
- GI50 (SF-268 CNS): 3.06 µM
- TGI (SF-268 CNS): 35.3 µM
- GI50 (NCI-H522 lung): 2.36 µM
- TGI (NCI-H522 lung): 10.1 µM
- GI50 (786-0 renal): 2.06 µM
- TGI (786-0 renal): > 100 µM
- GI50 (ACHN renal): 0.702 µM
- TGI (ACHN renal): 84.7 µM

SMILES: CCCN1CCN(c2ccc3nc(-c4ccc5nc(-c6cc(OC)ccc6OC)[nH]c5c4)[nH]c3c2)CC1
- GI50 (EKVX NSCLC): 1.81 µM
- TGI (EKVX NSCLC): 3.35 µM
- GI50 (RPMI-8226 leukemia): 2.17 µM
- TGI (RPMI-8226 leukemia): 4.79 µM
- GI50 (BT-549 breast): 15.7 µM
- TGI (BT-549 breast): 36.1 µM
- GI50 (HL-60(TB) leukemia): 3.12 µM
- TGI (HL-60(TB) leukemia): 8.91 µM
- GI50 (SW-620 colon): 1.86 µM
- TGI (SW-620 colon): 3.57 µM
- GI50 (UACC-257 melanoma): 20 µM
- TGI (UACC-257 melanoma): 39.2 µM
- GI50 (SF-268 CNS): 18.6 µM
- TGI (SF-268 CNS): 43 µM
- GI50 (NCI-H522 lung): 1.74 µM
- TGI (NCI-H522 lung): 3.68 µM
- GI50 (786-0 renal): 1.93 µM
- TGI (786-0 renal): 3.41 µM
- GI50 (ACHN renal): 1.69 µM
- TGI (ACHN renal): 3.06 µM

SMILES: O=C(Nc1ccc(F)cc1F)c1cc(Br)ccc1O
- GI50 (EKVX NSCLC): 2.23 µM
- TGI (EKVX NSCLC): 9.73 µM
- GI50 (RPMI-8226 leukemia): 1.69 µM
- TGI (RPMI-8226 leukemia): 5.29 µM
- GI50 (BT-549 breast): 1.99 µM
- TGI (BT-549 breast): 5.51 µM
- GI50 (HL-60(TB) leukemia): 2.44 µM
- TGI (HL-60(TB) leukemia): 7.17 µM
- GI50 (SW-620 colon): 3.06 µM
- TGI (SW-620 colon): 55.9 µM
- GI50 (UACC-257 melanoma): 1.86 µM
- TGI (UACC-257 melanoma): 7.24 µM
- GI50 (SF-268 CNS): 2.78 µM
- TGI (SF-268 CNS): 38.7 µM
- GI50 (NCI-H522 lung): 2.83 µM
- TGI (NCI-H522 lung): 39.9 µM
- GI50 (786-0 renal): 3.13 µM
- TGI (786-0 renal): 10.2 µM
- GI50 (ACHN renal): 2.5 µM
- TGI (ACHN renal): 8.4 µM

SMILES: Cc1cc2cc3c(C)cc(=O)oc3c(C)c2o1
- TGI (EKVX NSCLC): > 100 µM
- TGI (RPMI-8226 leukemia): > 100 µM
- TGI (BT-549 breast): > 100 µM
- TGI (HL-60(TB) leukemia): > 100 µM
- TGI (SW-620 colon): > 100 µM
- TGI (UACC-257 melanoma): > 100 µM
- TGI (SF-268 CNS): > 100 µM
- TGI (NCI-H522 lung): > 100 µM
- TGI (786-0 renal): > 100 µM
- TGI (ACHN renal): > 100 µM

SMILES: O=C(CC12CC3CC(CC(C3)C1)C2)NCCOCCOCCOCCNC(=O)c1cc2c(o1)C(=O)c1ccccc1C2=O
- GI50 (EKVX NSCLC): 2.23 µM
- TGI (EKVX NSCLC): 5.29 µM
- GI50 (RPMI-8226 leukemia): 1.57 µM
- TGI (RPMI-8226 leukemia): 4.61 µM
- GI50 (BT-549 breast): 1.33 µM
- TGI (BT-549 breast): 2.68 µM
- GI50 (HL-60(TB) leukemia): 1.4 µM
- TGI (HL-60(TB) leukemia): 4.98 µM
- GI50 (SW-620 colon): 1.68 µM
- TGI (SW-620 colon): 4.61 µM
- GI50 (UACC-257 melanoma): 1.22 µM
- TGI (UACC-257 melanoma): 2.52 µM
- GI50 (SF-268 CNS): 2.17 µM
- TGI (SF-268 CNS): 5.59 µM
- GI50 (NCI-H522 lung): 1.54 µM
- TGI (NCI-H522 lung): 3.51 µM
- GI50 (786-0 renal): 2.55 µM
- TGI (786-0 renal): 8.87 µM
- GI50 (ACHN renal): 1.51 µM
- TGI (ACHN renal): 3.12 µM

SMILES: Cc1cccc(Cl)c1NC(=O)/C=C/c1ccccc1
- TGI (EKVX NSCLC): > 100 µM
- TGI (RPMI-8226 leukemia): > 100 µM
- TGI (BT-549 breast): > 100 µM
- TGI (HL-60(TB) leukemia): > 100 µM
- TGI (SW-620 colon): > 100 µM
- TGI (UACC-257 melanoma): > 100 µM
- TGI (SF-268 CNS): > 100 µM
- TGI (NCI-H522 lung): > 100 µM
- TGI (786-0 renal): > 100 µM
- TGI (ACHN renal): > 100 µM

SMILES: O=C1NC(=S)NC(=O)C1=Cc1cccc2cc3ccccc3cc12
- TGI (EKVX NSCLC): 8.9 µM
- TGI (BT-549 breast): 3.33 µM
- TGI (HL-60(TB) leukemia): 5.67 µM
- TGI (SW-620 colon): > 25.2 µM
- TGI (UACC-257 melanoma): 3.37 µM
- TGI (SF-268 CNS): 4.73 µM
- TGI (NCI-H522 lung): 4.36 µM
- TGI (786-0 renal): 3.42 µM
- TGI (ACHN renal): 3.51 µM

SMILES: O=[N+]([O-])c1ccc(N=Nc2c(O)ccc3ccccc23)cc1
- GI50 (EKVX NSCLC): 28 µM and > 100 µM
- TGI (EKVX NSCLC): > 100 µM
- TGI (RPMI-8226 leukemia): > 100 µM
- GI50 (BT-549 breast): 30.3 µM and > 100 µM
- TGI (BT-549 breast): 96.1 µM and > 100 µM
- GI50 (HL-60(TB) leukemia): 38.4 µM and > 100 µM
- TGI (HL-60(TB) leukemia): > 100 µM
- TGI (SW-620 colon): > 100 µM
- TGI (UACC-257 melanoma): > 100 µM
- GI50 (SF-268 CNS): 35.9 µM and > 100 µM
- TGI (SF-268 CNS): > 100 µM
- GI50 (NCI-H522 lung): 35.9 µM
- TGI (NCI-H522 lung): > 100 µM
- TGI (786-0 renal): > 100 µM
- GI50 (ACHN renal): 31.3 µM and > 100 µM
- TGI (ACHN renal): > 100 µM
